Here are results for 8 compounds from ChEMBL document CHEMBL6115030, “Systematic All-Hydrocarbon Stapling Analysis for Cecropin A Generates a Potent and Stable Antimicrobial Peptide” (J Med Chem, 2025).

Format in all cases: functional
In one assay the test system is Pseudomonas aeruginosa. The assay can be described thus: Antibacterial activity against Pseudomonas aeruginosa PAO1 assessed as inhibition of bacterial growth measured after 24 hrs by broth microdilution method.
In another assay the test system is Klebsiella pneumoniae. The assay can be described thus: Antibacterial activity against Klebsiella pneumoniae ATCC 13883 assessed as inhibition of bacterial growth measured after 24 hrs by broth microdilution method. A general note: Dilution methods test growth across graded concentrations, often in twofold steps.
For a further assay, the system named is Staphylococcus aureus. In words: Antibacterial activity against Staphylococcus aureus ATCC 25923 assessed as inhibition of bacterial growth measured after 24 hrs by broth microdilution method.

Values after ≈ are worked out from the molar mass of the structure shown. Bridge positions count the residues as written; N and C are the ends. Square brackets hold non-standard residues; d marks the D form. Peptide text beside a SMILES is read from it. S5 = C=CCCC[C@](C)(N)C(=O)O

For orientation: MIC means the lowest concentration that inhibits growth of the organism. As to `CC[C@H](C)[C@H](NC(=O)[C@H](CCC(N)=O)NC(=O)[C@@H](NC(=O)[C@H](C)NC(=O)[C@H](CCC(N)=O)NC(=O)CNC(=O)[C@@H](NC(=O)[C@@H](NC(=O)[C@H](C)NC(=O)[C@@H](NC(=O)[C@H](C)NC(=O)[C@@H]1CCCN1C(=O)CNC(=O)[C@]1(C)CCC/C=C\CCC[C@](C)(NC(=O)[C@H](CC(=O)O)NC(=O)[C@H](CCCNC(=N)N)NC(=O)[C@@H](NC(=O)[C@H](CC(N)=O)NC(=O)[C@H](CCC(N)=O)NC(=O)CNC(=O)[C@@H](NC(=O)[C@H](CCCCN)NC(=O)[C@H](CCC(=O)O)NC(=O)[C@@H](NC(=O)[C@H](CCCCN)NC(=O)[C@H](CCCCN)NC(=O)[C@H](Cc2ccccc2)NC(=O)[C@H](CC(C)C)NC(=O)[C@H](CCCCN)NC(=O)[C@H](Cc2c[nH]c3ccccc23)NC(=O)[C@H](CCCCN)NC(C)=O)[C@@H](C)CC)C(C)C)[C@@H](C)CC)C(=O)N[C@@H]([C@@H](C)CC)C(=O)N[C@@H]([C@@H](C)CC)C(=O)N[C@@H](CCCCN)C(=O)N1)C(C)C)C(C)C)C(C)C)[C@@H](C)O)C(=O)N[C@@H](C)C(=O)N[C@@H](CCCCN)C(N)=O` (Ac-KWKLFKKIEKVGQNIRD[S5]IIK[S5]GPAVAVVGQATQIAK-NH2; staple (Z) 18-22), the MIC in the assay with Pseudomonas aeruginosa, with Klebsiella pneumoniae and in the assay on Staphylococcus aureus was 3.13 µM (≈ 13 µg/mL) each time.

As to `CC[C@H](C)[C@H](NC(=O)CNC(=O)[C@H](CC(=O)O)NC(=O)[C@H](CCCNC(=N)N)NC(=O)[C@@H](NC(=O)[C@H](CC(N)=O)NC(=O)[C@H](CCC(N)=O)NC(=O)CNC(=O)[C@]1(C)CCC/C=C\CCC[C@](C)(NC(=O)[C@H](CCCCN)NC(=O)[C@H](Cc2ccccc2)NC(=O)[C@H](CC(C)C)NC(=O)[C@H](CCCCN)NC(=O)[C@H](Cc2c[nH]c3ccccc23)NC(=O)[C@H](CCCCN)NC(C)=O)C(=O)N[C@@H]([C@@H](C)CC)C(=O)N[C@@H](CCC(=O)O)C(=O)N[C@@H](CCCCN)C(=O)N1)[C@@H](C)CC)C(=O)N[C@H](C(=O)N[C@@H](CCCCN)C(=O)N[C@@H](C)C(=O)NCC(=O)N1CCC[C@H]1C(=O)N[C@@H](C)C(=O)N[C@H](C(=O)N[C@@H](C)C(=O)N[C@H](C(=O)N[C@H](C(=O)NCC(=O)N[C@@H](CCC(N)=O)C(=O)N[C@@H](C)C(=O)N[C@H](C(=O)N[C@@H](CCC(N)=O)C(=O)N[C@H](C(=O)N[C@@H](C)C(=O)N[C@@H](CCCCN)C(N)=O)[C@@H](C)CC)[C@@H](C)O)C(C)C)C(C)C)C(C)C)[C@@H](C)CC` (Ac-KWKLFK[S5]IEK[S5]GQNIRDGIIKAGPAVAVVGQATQIAK-NH2; staple (Z) 7-11), the MIC with Pseudomonas aeruginosa is greater than 100 µM; in the assay with Klebsiella pneumoniae, 6.25 µM (≈ 25.4 µg/mL); with Staphylococcus aureus, greater than 100 µM.

For the compound `CC[C@H](C)[C@H](NC(=O)CNC(=O)[C@H](CC(=O)O)NC(=O)[C@H](CCCNC(=N)N)NC(=O)[C@@H](NC(=O)[C@H](CC(N)=O)NC(=O)[C@H](CCC(N)=O)NC(=O)CNC(=O)[C@@H](NC(=O)[C@H](CCCCN)NC(=O)[C@H](CCC(=O)O)NC(=O)[C@]1(C)CCC/C=C\CCC[C@](C)(NC(=O)[C@H](CCCCN)NC(=O)[C@H](Cc2c[nH]c3ccccc23)NC(=O)[C@H](CCCCN)NC(C)=O)C(=O)N[C@@H](Cc2ccccc2)C(=O)N[C@@H](CCCCN)C(=O)N[C@@H](CCCCN)C(=O)N1)C(C)C)[C@@H](C)CC)C(=O)N[C@H](C(=O)N[C@@H](CCCCN)C(=O)N[C@@H](C)C(=O)NCC(=O)N1CCC[C@H]1C(=O)N[C@@H](C)C(=O)N[C@H](C(=O)N[C@@H](C)C(=O)N[C@H](C(=O)N[C@H](C(=O)NCC(=O)N[C@@H](CCC(N)=O)C(=O)N[C@@H](C)C(=O)N[C@H](C(=O)N[C@@H](CCC(N)=O)C(=O)N[C@H](C(=O)N[C@@H](C)C(=O)N[C@@H](CCCCN)C(N)=O)[C@@H](C)CC)[C@@H](C)O)C(C)C)C(C)C)C(C)C)[C@@H](C)CC` (Ac-KWK[S5]FKK[S5]EKVGQNIRDGIIKAGPAVAVVGQATQIAK-NH2; staple (Z) 4-8), the values for the MIC with Pseudomonas aeruginosa, in the assay with Klebsiella pneumoniae and with Staphylococcus aureus were greater than 100 µM, 6.25 µM (≈ 25.4 µg/mL) and 25 µM (≈ 102 µg/mL), respectively.

For the compound `CC[C@H](C)[C@H](NC(=O)CNC(=O)[C@H](CC(=O)O)NC(=O)[C@H](CCCNC(=N)N)NC(=O)[C@@H](NC(=O)[C@H](CC(N)=O)NC(=O)[C@H](CCC(N)=O)NC(=O)CNC(=O)[C@@H](NC(=O)[C@H](CCCCN)NC(=O)[C@]1(C)CCC/C=C\CCC[C@](C)(NC(=O)[C@H](CC(C)C)NC(=O)[C@H](CCCCN)NC(=O)[C@H](Cc2c[nH]c3ccccc23)NC(=O)[C@H](CCCCN)NC(C)=O)C(=O)N[C@@H](CCCCN)C(=O)N[C@@H](CCCCN)C(=O)N[C@@H]([C@@H](C)CC)C(=O)N1)C(C)C)[C@@H](C)CC)C(=O)N[C@H](C(=O)N[C@@H](CCCCN)C(=O)N[C@@H](C)C(=O)NCC(=O)N1CCC[C@H]1C(=O)N[C@@H](C)C(=O)N[C@H](C(=O)N[C@@H](C)C(=O)N[C@H](C(=O)N[C@H](C(=O)NCC(=O)N[C@@H](CCC(N)=O)C(=O)N[C@@H](C)C(=O)N[C@H](C(=O)N[C@@H](CCC(N)=O)C(=O)N[C@H](C(=O)N[C@@H](C)C(=O)N[C@@H](CCCCN)C(N)=O)[C@@H](C)CC)[C@@H](C)O)C(C)C)C(C)C)C(C)C)[C@@H](C)CC` (Ac-KWKL[S5]KKI[S5]KVGQNIRDGIIKAGPAVAVVGQATQIAK-NH2; staple (Z) 5-9), the values for the minimal inhibitory concentration (MIC) with Pseudomonas aeruginosa, in the assay on Klebsiella pneumoniae and in the assay on Staphylococcus aureus were greater than 100 µM, 6.25 µM (≈ 25.1 µg/mL) and 1.56 µM (≈ 6.27 µg/mL), respectively.

As for `CC[C@H](C)[C@H](NC(=O)CNC(=O)[C@H](CC(=O)O)NC(=O)[C@H](CCCNC(=N)N)NC(=O)[C@]1(C)CCC/C=C\CCC[C@](C)(NC(=O)[C@H](CCCCN)NC(=O)[C@H](CCC(=O)O)NC(=O)[C@@H](NC(=O)[C@H](CCCCN)NC(=O)[C@H](CCCCN)NC(=O)[C@H](Cc2ccccc2)NC(=O)[C@H](CC(C)C)NC(=O)[C@H](CCCCN)NC(=O)[C@H](Cc2c[nH]c3ccccc23)NC(=O)[C@H](CCCCN)NC(C)=O)[C@@H](C)CC)C(=O)NCC(=O)N[C@@H](CCC(N)=O)C(=O)N[C@@H](CC(N)=O)C(=O)N1)C(=O)N[C@H](C(=O)N[C@@H](CCCCN)C(=O)N[C@@H](C)C(=O)NCC(=O)N1CCC[C@H]1C(=O)N[C@@H](C)C(=O)N[C@H](C(=O)N[C@@H](C)C(=O)N[C@H](C(=O)N[C@H](C(=O)NCC(=O)N[C@@H](CCC(N)=O)C(=O)N[C@@H](C)C(=O)N[C@H](C(=O)N[C@@H](CCC(N)=O)C(=O)N[C@H](C(=O)N[C@@H](C)C(=O)N[C@@H](CCCCN)C(N)=O)[C@@H](C)CC)[C@@H](C)O)C(C)C)C(C)C)C(C)C)[C@@H](C)CC` (Ac-KWKLFKKIEK[S5]GQN[S5]RDGIIKAGPAVAVVGQATQIAK-NH2; staple (Z) 11-15), the values for the MIC in the assay on Pseudomonas aeruginosa, with Klebsiella pneumoniae and with Staphylococcus aureus were 80 µM (≈ 327 µg/mL), 6.25 µM (≈ 25.5 µg/mL) and 25 µM (≈ 102 µg/mL), respectively.

On to `CC[C@H](C)[C@H](NC(=O)CNC(=O)[C@H](CC(=O)O)NC(=O)[C@H](CCCNC(=N)N)NC(=O)[C@@H](NC(=O)[C@]1(C)CCC/C=C\CCC[C@](C)(NC(=O)[C@H](CCC(=O)O)NC(=O)[C@@H](NC(=O)[C@H](CCCCN)NC(=O)[C@H](CCCCN)NC(=O)[C@H](Cc2ccccc2)NC(=O)[C@H](CC(C)C)NC(=O)[C@H](CCCCN)NC(=O)[C@H](Cc2c[nH]c3ccccc23)NC(=O)[C@H](CCCCN)NC(C)=O)[C@@H](C)CC)C(=O)N[C@@H](C(C)C)C(=O)NCC(=O)N[C@@H](CCC(N)=O)C(=O)N1)[C@@H](C)CC)C(=O)N[C@H](C(=O)N[C@@H](CCCCN)C(=O)N[C@@H](C)C(=O)NCC(=O)N1CCC[C@H]1C(=O)N[C@@H](C)C(=O)N[C@H](C(=O)N[C@@H](C)C(=O)N[C@H](C(=O)N[C@H](C(=O)NCC(=O)N[C@@H](CCC(N)=O)C(=O)N[C@@H](C)C(=O)N[C@H](C(=O)N[C@@H](CCC(N)=O)C(=O)N[C@H](C(=O)N[C@@H](C)C(=O)N[C@@H](CCCCN)C(N)=O)[C@@H](C)CC)[C@@H](C)O)C(C)C)C(C)C)C(C)C)[C@@H](C)CC` (Ac-KWKLFKKIE[S5]VGQ[S5]IRDGIIKAGPAVAVVGQATQIAK-NH2; staple (Z) 10-14), for which the MIC in the assay with Pseudomonas aeruginosa, in the assay on Klebsiella pneumoniae and in the assay with Staphylococcus aureus was greater than 100 µM in each case.

In the case of `CC[C@H](C)[C@@H]1NC(=O)CNC(=O)[C@H](CC(=O)O)NC(=O)[C@@](C)(NC(=O)[C@@H](NC(=O)[C@H](CC(N)=O)NC(=O)[C@H](CCC(N)=O)NC(=O)CNC(=O)[C@@H](NC(=O)[C@H](CCCCN)NC(=O)[C@H](CCC(=O)O)NC(=O)[C@@H](NC(=O)[C@H](CCCCN)NC(=O)[C@H](CCCCN)NC(=O)[C@H](Cc2ccccc2)NC(=O)[C@H](CC(C)C)NC(=O)[C@H](CCCCN)NC(=O)[C@H](Cc2c[nH]c3ccccc23)NC(=O)[C@H](CCCCN)NC(C)=O)[C@@H](C)CC)C(C)C)[C@@H](C)CC)CCC/C=C\CCC[C@@](C)(C(=O)N[C@@H](CCCCN)C(=O)N[C@@H](C)C(=O)NCC(=O)N2CCC[C@H]2C(=O)N[C@@H](C)C(=O)N[C@H](C(=O)N[C@@H](C)C(=O)N[C@H](C(=O)N[C@H](C(=O)NCC(=O)N[C@@H](CCC(N)=O)C(=O)N[C@@H](C)C(=O)N[C@H](C(=O)N[C@@H](CCC(N)=O)C(=O)N[C@H](C(=O)N[C@@H](C)C(=O)N[C@@H](CCCCN)C(N)=O)[C@@H](C)CC)[C@@H](C)O)C(C)C)C(C)C)C(C)C)NC1=O` (Ac-KWKLFKKIEKVGQNI[S5]DGI[S5]KAGPAVAVVGQATQIAK-NH2; staple (Z) 16-20), the MIC was 100 µM (≈ 403 µg/mL) in the assay on Pseudomonas aeruginosa, 6.25 µM (≈ 25.2 µg/mL) with Klebsiella pneumoniae and 12.5 µM (≈ 50.3 µg/mL) in the assay with Staphylococcus aureus.

Regarding `CC[C@H](C)[C@H](NC(=O)CNC(=O)[C@H](CC(=O)O)NC(=O)[C@H](CCCNC(=N)N)NC(=O)[C@@H](NC(=O)[C@H](CC(N)=O)NC(=O)[C@]1(C)CCC/C=C\CCC[C@](C)(NC(=O)[C@@H](NC(=O)[C@H](CCCCN)NC(=O)[C@H](CCCCN)NC(=O)[C@H](Cc2ccccc2)NC(=O)[C@H](CC(C)C)NC(=O)[C@H](CCCCN)NC(=O)[C@H](Cc2c[nH]c3ccccc23)NC(=O)[C@H](CCCCN)NC(C)=O)[C@@H](C)CC)C(=O)N[C@@H](CCCCN)C(=O)N[C@@H](C(C)C)C(=O)NCC(=O)N1)[C@@H](C)CC)C(=O)N[C@H](C(=O)N[C@@H](CCCCN)C(=O)N[C@@H](C)C(=O)NCC(=O)N1CCC[C@H]1C(=O)N[C@@H](C)C(=O)N[C@H](C(=O)N[C@@H](C)C(=O)N[C@H](C(=O)N[C@H](C(=O)NCC(=O)N[C@@H](CCC(N)=O)C(=O)N[C@@H](C)C(=O)N[C@H](C(=O)N[C@@H](CCC(N)=O)C(=O)N[C@H](C(=O)N[C@@H](C)C(=O)N[C@@H](CCCCN)C(N)=O)[C@@H](C)CC)[C@@H](C)O)C(C)C)C(C)C)C(C)C)[C@@H](C)CC` (Ac-KWKLFKKI[S5]KVG[S5]NIRDGIIKAGPAVAVVGQATQIAK-NH2; staple (Z) 9-13), the MIC with Pseudomonas aeruginosa is greater than 100 µM; in the assay with Klebsiella pneumoniae, 6.25 µM (≈ 25.2 µg/mL); in the assay with Staphylococcus aureus, 1.56 µM (≈ 6.3 µg/mL).
